{"source": "patent US5567710A", "about": "“Polycyclic fused ring modulators of acetylcholine receptors” (SIBIA Neurosciences, Inc., priority 1994, dated 1996)", "key": {"[1]": {"target": "T1, acetylcholine receptor (rat cerebral membranes) (Rattus norvegicus, UniProt P09483+P12390)", "T1 construct": "Synaptic membranes were prepared by homogenizing the cortical tissue; from tissue; host or cells: cerebral cortex synaptic membranes of male Sprague-Dawley rats", "T1 sequence (P09483 31-630)": "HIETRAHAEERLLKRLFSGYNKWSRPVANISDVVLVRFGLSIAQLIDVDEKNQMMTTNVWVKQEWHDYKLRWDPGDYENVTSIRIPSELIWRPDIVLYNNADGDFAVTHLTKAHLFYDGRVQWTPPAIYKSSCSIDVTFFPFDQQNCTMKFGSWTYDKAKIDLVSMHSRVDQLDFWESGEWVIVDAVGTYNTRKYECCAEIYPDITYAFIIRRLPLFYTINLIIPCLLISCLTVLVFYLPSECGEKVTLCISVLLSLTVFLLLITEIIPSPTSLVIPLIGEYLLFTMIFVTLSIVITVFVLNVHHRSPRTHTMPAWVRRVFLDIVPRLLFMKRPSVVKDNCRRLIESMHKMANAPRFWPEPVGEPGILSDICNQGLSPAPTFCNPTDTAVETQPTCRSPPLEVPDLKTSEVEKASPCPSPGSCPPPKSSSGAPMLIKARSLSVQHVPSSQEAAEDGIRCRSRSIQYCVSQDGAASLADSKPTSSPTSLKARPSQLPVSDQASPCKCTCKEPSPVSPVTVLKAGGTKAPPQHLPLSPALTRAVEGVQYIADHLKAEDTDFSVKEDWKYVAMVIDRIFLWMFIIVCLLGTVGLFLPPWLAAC", "T1 sequence (P12390 25-500)": "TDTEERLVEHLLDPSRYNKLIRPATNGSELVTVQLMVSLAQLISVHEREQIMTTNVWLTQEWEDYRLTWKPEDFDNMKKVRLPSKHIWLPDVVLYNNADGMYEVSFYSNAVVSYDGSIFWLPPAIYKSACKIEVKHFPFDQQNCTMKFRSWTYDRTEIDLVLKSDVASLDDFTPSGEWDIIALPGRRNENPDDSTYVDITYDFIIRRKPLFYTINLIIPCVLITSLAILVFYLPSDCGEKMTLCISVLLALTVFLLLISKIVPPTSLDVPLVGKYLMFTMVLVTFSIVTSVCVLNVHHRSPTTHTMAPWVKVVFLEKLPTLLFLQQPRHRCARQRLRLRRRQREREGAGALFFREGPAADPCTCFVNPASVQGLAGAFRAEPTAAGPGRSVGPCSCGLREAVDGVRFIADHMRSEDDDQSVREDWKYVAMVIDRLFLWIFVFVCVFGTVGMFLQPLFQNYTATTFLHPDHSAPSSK", "assay": "3H-nicotine displacement from rat cerebral membranes", "format": "binding", "conditions": "3H-nicotine (1.9 nM) displacement, atropine 3 μM"}, "rat thalamus slices": {"tested_on": "rat thalamus slices", "format": "cell-based", "experimental": "(§1) Measurement of ^3 H-dopamine release from rat striatal slices was performed according to the method of Sacaan et al. (J. Neurochem. 59:245 (1992)). Male Sprague-Dawley rats (250-300 g) were decapitated and the striata dissected quickly on a cold glass surface. The tissue was chopped to a thickness of 300 μm with a McIlwain tissue chopper. After chopping again at right angles the tissue was dispersed and incubated for 10 min. at 37° C. in oxygenated Kreb's buffer. ^3 H-Dopamine (40 Ci/mmol, NEN-Dupont, Boston, Mass.) was added (50 nM) and the tissue was incubated for 30 min. in Kreb's buffer containing 10 μM pargyline and 0.5 mM ascorbic acid. Aliquots of the minced tissue were then transferred to chambers of a Brandel Superfusion system in which the tissue was supported on Whatman GF/B filter discs. The tissue was then superfused with buffer at a constant flow rate of 0.3 ml/min. by means of a Brandel peristaltic pump. The perfusate was collected in plastic scintillation vials in 3-min. fractions, and the radioactivity was estimated by scintillation spectrophotometry. The superfusate for the first 120 min. was discarded. After two baseline fractions had been collected, the superfusion buffer was switched to fresh buffer with or without compound of interest. At the end of the experiment the filter and the tissue were removed, and the ^3 H-dopamine content was estimated after extraction into scintillation fluid. The fractional efflux of tritium was estimated as the amount of radioactivity in the perfusate fraction relative to the total amount in the tissue.\n(§2) Following essentially the same procedure as set forth in the preceding paragraph, the amount of ^3 H-norepinephrine released from rat hippocampus and thalamus slices superfused with buffer containing (or lacking) compounds of interest was also measured.\n(§3) The results of studies of the effects of an invention compound (as compared to the effect of nicotine and cytisine) on the release of neurotransmitters from rat brain slices are presented in Table II. The results presented in the Table are expressed as the percent fractional release."}, "rat hippocampus slices": {"tested_on": "rat hippocampus slices", "format": "cell-based", "experimental": "as §1, §2, §3"}, "[2]": {"tested_on": "haloperidol-induced catalepsy in rats", "assay": "Haloperidol-induced catalepsy model in rats", "format": "in vivo, rat", "conditions": "s.c.; for Reduction in catalepsy (maximum): haloperidol 2 mg/kg i.p., vs haloperidol alone"}, "[3]": {"target": "T1, acetylcholine receptor (rat cerebral membranes)", "assay": "3H-cyt (cytisine) displacement from rat cerebral membranes", "format": "binding", "conditions": "3H-cyt displacement"}, "rat striatal slices": {"tested_on": "rat striatal slices", "format": "cell-based", "experimental": "as §1, §3"}, "tail flick in rats": {"tested_on": "tail flick in rats", "format": "in vivo, rat", "experimental": "The effects of invention compounds on latency in the time between stimulus application and tail flick in rats were evaluated using the procedure of D'Amour and Smith, J. Pharmacol. Exp. Ther. 72:74-79 (1941). Male rats (150-200g; Harlan, San Diego, Calif.) were acclimated to investigator's handling by taking two-to-three tail-flick latencies. The animals were held by hand such that the tail is placed in the groove of the Tail-Flick meter (IITC Life Sciences, Woodland Hill, Calif., Model 33). The light was focused 3-4 cm from the tip of the tail by a foot-operated switch. The intensity of the incident beam was adjusted to give baseline latencies in the range of 1-4 seconds. Groups of 5-6 rates were used in each treatment. The tail-flick latencies were recorded to the nearest 0.1 seconds and a cut-off time of 10 seconds was established to prevent thermal injury. The results of one such study are shown in Table V. Results presented in the Table are expressed as the percent of the maximum latency to remove the tail from the light beam. Maximum latency is 10 seconds."}, "[4]": {"tested_on": "rats with unilateral 6-hydroxydopamine lesions of the nigro-striatal dopamine pathway", "format": "in vivo, rat", "experimental": "The effects of invention compounds on turning behavior of rats with unilateral 6-hydroxydopamine lesions in the striatum were evaluated using the procedure of Ungerstedt and Arbutknott Brain Res. 24:485-493 (1970). Rats were injected with desmethylimipramine (25 mg/kg i.p.) and pargyline (75 mg/kg i.p.) approximately 30 minutes prior to 6-hydroxydopamine infusion into the substantia nigra. Results reported in the Table are measured as the maximal rotation per 15-min interval toward the lesioned side of the striatum."}, "[5]": {"target": "acetylcholine receptor (rat cerebral membranes)", "format": "binding", "conditions": "3H-QNB displacement"}, "[6]": {"target": "T1, acetylcholine receptor (rat cerebral membranes)", "assay": "3H-MCC (methylcarbamylcholine) displacement from rat cerebral membranes", "format": "binding", "conditions": "3H-MCC displacement"}}, "note": "Like-named read-outs stand apart in the source and are kept apart here.", "data": [{"smiles": "COc1cc2c(cn1)C1NCCC1CC2", "note": "(centres unmarked)", "values": [{"measurement": "IC50", "setting": "[1]", "value": 1.9, "unit": "µM"}, {"measurement": "3H-norepinephrine thalamus, percent fractional release", "setting": "rat thalamus slices; 300 μM", "value": 2.2, "unit": "%"}, {"measurement": "3H-norepinephrine hippocampus, percent fractional release", "setting": "rat hippocampus slices; 300 μM", "value": 0.69, "unit": "%"}, {"measurement": "Cataleptogenic effect of haloperidol in rats (in words)", "setting": "[2]; 3 mg/kg", "value": "reduces the cataleptogenic effect of haloperidol in rats"}, {"measurement": "Reduction in catalepsy (maximum)", "setting": "[2]; 3 mg/kg", "value": 34, "unit": "%"}, {"measurement": "IC50", "setting": "[3]", "value": 5.4, "unit": "µM"}, {"measurement": "3H-dopamine striatum, percent fractional release", "setting": "rat striatal slices; 300 μM", "value": 2.2, "unit": "%"}, {"measurement": "Release of catecholamines from rat brain slices (in words)", "setting": "rat striatal slices; striatum (dopamine), hippocampus and thalamus (norepinephrine)", "value": "selectively induces release of catecholamines in different brain regions"}, {"measurement": "Duration of effect", "setting": "tail flick in rats; 30 mg/kg, p.o.", "value": "> 180", "unit": "min"}, {"measurement": "Latency between application of stimulus and tail-flick response (in words)", "setting": "tail flick in rats; 30 mg/kg, p.o., as compared to nicotine", "value": "increased the latency period, as compared to nicotine"}, {"measurement": "% maximum possible effect", "setting": "tail flick in rats; 30 mg/kg, p.o., maximum latency 10 seconds", "value": 52, "unit": "%"}, {"measurement": "Duration of effect versus morphine (in words)", "setting": "tail flick in rats; rat, in vivo", "value": "longer duration than the effect of morphine"}, {"measurement": "Range of activity (maximal rotation per 15-min interval toward the lesioned side of the striatum)", "setting": "[4]; 10 mg/kg, s.c.", "value": "9-50 rotation per 15-min interval"}, {"measurement": "Turning towards the 6-hydroxydopamine-lesioned side (in words)", "setting": "[4]; 10 mg/kg, s.c.", "value": "induces turning towards the 6-hydroxydopamine-lesioned side of the rat striatum"}, {"measurement": "IC50", "setting": "[5]", "value": 6, "unit": "µM"}, {"measurement": "IC50", "setting": "[6]", "value": 0.8, "unit": "µM"}]}, {"smiles": "c1cc2c(cn1)C1NCCC1CO2", "note": "(centres unmarked)", "values": [{"measurement": "IC50", "setting": "[1]", "value": 0.51, "unit": "µM"}, {"measurement": "IC50", "setting": "[3]", "value": 2, "unit": "µM"}, {"measurement": "IC50", "setting": "[6]", "value": 0.61, "unit": "µM"}]}, {"smiles": "CC(N)Cc1ccccc1", "note": "(centres unmarked) [AMPHETAMINE, reference compound]", "values": [{"measurement": "Range of activity (maximal rotation per 15-min interval toward the lesioned side of the striatum)", "setting": "[4]; 5 mg/kg, s.c.", "value": "50-200 rotation per 15-min interval"}]}, {"smiles": "CN1CCCC1c1cccnc1", "note": "(centres unmarked) [NICOTINE, nicotine, reference compound]", "values": [{"measurement": "3H-norepinephrine thalamus, percent fractional release", "setting": "rat thalamus slices", "value": 2.9}, {"measurement": "3H-norepinephrine hippocampus, percent fractional release", "setting": "rat hippocampus slices", "value": 4.1}, {"measurement": "Reduction in catalepsy (maximum)", "setting": "[2]; 2 mg/kg", "value": 21, "unit": "%"}, {"measurement": "3H-dopamine striatum, percent fractional release", "setting": "rat striatal slices", "value": 1.80}, {"measurement": "% maximum possible effect", "setting": "tail flick in rats; rat, in vivo", "value": 38, "unit": "%"}, {"measurement": "Duration of effect", "setting": "tail flick in rats; rat, in vivo", "value": 60, "unit": "min"}, {"measurement": "Range of activity (maximal rotation per 15-min interval toward the lesioned side of the striatum)", "setting": "[4]; rat, in vivo", "value": "6-50"}]}, {"smiles": "COc1cc2c(cn1)C1C(CC2)CCN1C", "note": "(centres unmarked)", "values": [{"measurement": "IC50", "setting": "[1]", "value": 10.7, "unit": "µM"}, {"measurement": "IC50", "setting": "[3]", "value": 27.5, "unit": "µM"}, {"measurement": "IC50", "setting": "[5]", "value": 9, "unit": "µM"}, {"measurement": "IC50", "setting": "[6]", "value": 5.5, "unit": "µM"}]}, {"smiles": "O=c1cccc2n1C[C@@H]1CNC[C@H]2C1", "note": "[CYTISINE, cytisine]", "values": [{"measurement": "3H-norepinephrine thalamus, percent fractional release", "setting": "rat thalamus slices; 100 μM", "value": 2.9, "unit": "%"}, {"measurement": "3H-norepinephrine hippocampus, percent fractional release", "setting": "rat hippocampus slices; 100 μM", "value": 4.3, "unit": "%"}, {"measurement": "3H-dopamine striatum, percent fractional release", "setting": "rat striatal slices; 100 μM", "value": 0.96, "unit": "%"}]}, {"smiles": "CN1CC[C@]23c4c5ccc(O)c4O[C@H]2[C@@H](O)C=C[C@H]3[C@H]1C5", "note": "[Morphine, reference compound]", "values": [{"measurement": "% maximum possible effect", "setting": "tail flick in rats; 2 mg/kg, s.c., maximum latency 10 seconds", "value": 100, "unit": "%"}]}]}
